This note sets out measurements from patent US7381824B2 (Agouron Pharmaceuticals, Inc., priority 2003, dated 2008).

The structures appear in SMILES notation. pKi: −log10 of the molar value. Like-named read-outs stand apart in the source and are kept apart here.

For assay [1], the target named is T1, human vascular endothelial growth factor receptor 2 (VEGF-R2) (Homo sapiens, UniProt P35968, DEL940-989/E990V).
T1 construct: VEGF-R2D50 contains residues 806-939 and 990-1171; made in house; host or cells: baculovirus/insect cell system
The assay is described as follows: VEGF-R2 coupled spectrophotometric assay (FLVK, unphosphorylated VEGF-R2D50). The format is biochemical. Summed up:
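Unphosphorylated VEGF-R2D50 (residues 806-939/990-1171, E990V; baculovirus-expressed), 5 to 40 nM, with 20 mM poly(E4Y1), 3 mM ATP, 60 mM MgCl2 and 2 mM MnCl2 in 200 mM HEPES pH 7.5. ADP formation coupled via PK/LDH to NADH oxidation (A340). Ki fitted by Morrison equation; % inhibition at 50 nM from linear regression of absorbance versus time.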

For a further assay, the target named is T2, human FGF-R1 (Homo sapiens, UniProt P11362, C488A/C584S/L457V).
T2 construct: starting from the endogenous methionine residue 456 to glutamate 766; made in house; host or cells: baculovirus vector expression system
Description: FGF-R spectrophotometric assay. The format is biochemical. The protocol: The intracellular kinase domain of human FGF-R1 was expressed using the baculovirus vector expression system starting from the endogenous methionine residue 456 to glutamate 766, according to the residue numbering system of Mohammadi et al., Mol. Cell. Biol., 16, 977-989 (1996). In addition, the construct also has the following 3 amino acid substitutions: L457V, C488A, and C584S.
The spectrophotometric assay was carried out as described above for VEGF-R2, except for the following changes in concentration: FGF-R=50 nM, ATP=2 mM, and poly(E4Y1)=15 mM.

Assay [2] has as its system human umbilical vein endothelial cells (HUVEC). The assay is described as follows: HUVEC+VEGF proliferation assay. The conditions noted are these: Homo sapiens; VEGF-stimulated HUVEC proliferation, MTT, 72 hours. The format is cell-based. As to the method: HUVEC+VEGF Proliferation Assay
This assay determines the ability of a test compound to inhibit the growth factor-stimulated proliferation of human umbilical vein endothelial cells (“HUVEC”). HUVEC cells (passage 3-4, Clonetics, Corp.) were thawed into EGM2 culture medium (Clonetics Corp) in T75 flasks. Fresh EGM2 medium was added to the flasks 24 hours later. Four or five days later, cells were exposed to another culture medium (F12K medium supplemented with 10% fetal bovine serum (FBS), […] endothelial cell growth supplement (ECGS), and 0.1 mg/mL heparin). Exponentially-growing HUVEC cells were used in experiments thereafter. Ten to twelve thousand HUVEC cells were plated in 96-well dishes in […] of rich, culture medium (described above). The cells were allowed to attach for 24 hours in this medium. The medium was then removed by aspiration and […] of starvation media (F12K+1% FBS) was added to each well. After 24 hours, […] of test agent dissolved in 1% DMSO in starvation medium or this vehicle alone was added into each treatment well; the final DMSO concentration was 0.1%. One hour later, […] of VEGF (30 ng/mL) in starvation media was added to all wells except those containing untreated controls; the final VEGF concentration was 6 ng/mL. Cellular proliferation was quantified 72 hours later by MTT dye reduction, at which time cells were exposed for 4 hours MTT (Promega Corp.). Dye reduction was stopped by addition of a stop solution (Promega Corp.) and absorbance at 595 nm was determined on a 96-well spectrophotometer plate reader.

Setting [3] is: unphosphorylated VEGF-R2D50 (FLVK).

T1 sequence (P35968 with tags, fused parts or gaps DEL940-989/E990V limits assumed): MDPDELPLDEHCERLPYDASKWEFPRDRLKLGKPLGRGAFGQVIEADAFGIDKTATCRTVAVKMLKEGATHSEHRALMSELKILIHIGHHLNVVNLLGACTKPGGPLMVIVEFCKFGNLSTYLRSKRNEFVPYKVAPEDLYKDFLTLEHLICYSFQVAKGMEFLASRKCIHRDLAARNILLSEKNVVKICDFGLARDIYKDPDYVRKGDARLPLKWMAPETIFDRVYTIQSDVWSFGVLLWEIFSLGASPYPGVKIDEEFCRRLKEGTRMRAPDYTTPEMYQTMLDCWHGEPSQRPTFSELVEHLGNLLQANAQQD
T2 sequence (P11362 456-766 L457V/C488A/C584S): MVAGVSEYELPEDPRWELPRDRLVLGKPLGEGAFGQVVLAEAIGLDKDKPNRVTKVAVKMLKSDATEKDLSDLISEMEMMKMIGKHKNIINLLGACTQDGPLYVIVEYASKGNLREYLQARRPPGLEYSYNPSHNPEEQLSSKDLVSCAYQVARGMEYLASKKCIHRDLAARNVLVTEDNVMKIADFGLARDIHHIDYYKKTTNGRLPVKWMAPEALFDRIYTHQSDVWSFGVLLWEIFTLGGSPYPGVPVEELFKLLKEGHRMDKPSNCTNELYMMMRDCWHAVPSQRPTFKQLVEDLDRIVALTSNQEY

Turning to `COc1ccc2c(Oc3ccc4cc(C)oc4c3)ccnc2c1` [Example 125, 7-Methoxy-4-(2-methyl-benzofuran-6-yloxy)-quinoline], the inhibition – broadly, the change of the read-out against control, counted positive when it falls – at 1 µM in assay [1] turned out to be 68%; against human FGF-R1, 32%.

As for `Cc1cc2ccc(Oc3ccnc4cc(OCCN5CCOCC5)ccc34)cc2o1` [Example 126, 4-(2-Methyl-benzofuran-6-yloxy)-7-(2-morpholin-4-yl-ethoxy)-quinoline], the values for the pKi in assay [1] and in assay [1] (setting [3]) were 7.49 and under 8.00, respectively. On human FGF-R1, at 1 µM the inhibition was 38%.

For the compound `CNC(=O)c1c(C)oc2cc(Oc3ccnc4cc(-c5ccco5)ccc34)ccc12` [Example 13, 6-{[7-(2-furyl)quinolin-4-yl]oxy}-N,2-dimethyl-1-benzofuran-3-carboxamide], the IC50 (as a rule, the midpoint of a concentration-inhibition curve) in assay [2] was in the range of 1 to 10 nM. Besides, the pKi (as a rule, the Ki on a negative log10 scale, so that one unit is a factor of ten) in assay [1] (setting [3]) is over 9.00.

As for `CCOCCNC(=O)c1c(C)oc2cc(Oc3ccnc4cc(OC)ccc34)ccc12` [Example 86, 6-[(7-methoxyquinolin-4-yl)oxy]-2-methyl-N-[ethoxy-ethyl]-1-benzofuran-3-carboxamide], the 50% inhibitory concentration (IC50) in assay [2] lay in the range of 1 to 10 nM. In assay [1] (setting [3]), the pKi was 8.00 to 9.00.
